Where two headings read alike, the source gives them in different places.
Experiments:
[1] = test system: HBV; conditions: to the end of the second year of a two year study; cited from earlier work
[2] = test system: WT HBV produced by the 2.2.15 cells; conditions: Heijtink et al. 1993, read-out: IC50 of PMEA, literature value using the same cell line; cited from earlier work
[3] = test system: WT HBV produced by the 2.2.15 cells; assay: PMEA inhibition of HBV DNA production in 2.2.15 stable HBV-producer cells; assay type: cell-based; conditions: Hepatitis B virus, 168 h, HBV DNA in media on day 7, read-out: IC50 PMEA (95%Cl)
Method: (§1) The human hepatobtastoma cell line (Hep-G2-2.2.15) which constitutively produces infectious HBV was seeded into 96 well microtiter plates at a density of 5 x 10^3 cells per well. These cells were treated with a combination of lamivudine and PMEA on triplicate plates. Culture media containing drugs was replenished every other day for 9 days, at which time supernatants were collected and analyzed for HBV content. The lamivudine/PMEA combination was tested twice in triplicate in matrix fashion. […] Data were normalised to values obtained with non-drug treated cells, and expressed as a percent of control for analysis. […] Briefly, HBV detection was performed by "capturing" virus from supernatants on Anti-HBsAg coated plates, washing, denaturing to release HBV DNA, performing PCR with biotinylated primers, streptavidin capture of biotinylated PCR products with concomitant probe hybridization, addition of substrate, and reading optical densities of the colorimetric reaction. Dilutions of a standardized HBV-containing supernatant were included on every plate, and HBV DNA concentrations of test wells were calculated from this HBV standard curve. The useful range of detection is at least .045 to 45 fg of HBV DNA, where 30 copies of the genome can be reliably detected. […]

[4] = in vitro; assay type: cell-based; conditions: human; HepG2 cells; read-out: cytotoxic IC50
Method: The IC50 for PMEA was determined against wild type (WT) and lamivudine resistant HBV transiently expressed in a cell culture system as described below. HepG2 cells were transiently transfected with plasmid containing the HBV genome that had the wild type sequence or contained the following lamivudine resistant mutations in the reverse transcriptase gene; M552I, M552V, L528M, L528MM552V. […] HepG2 cells were seeded into 96-well Costar plates at 6300 cells per well in 150 µl of HepG2 media (Dulbecco's Modified Eagle Medium (DMEM), containing 10% fetal bovine serum) and were incubated overnight at 37°C. For each transfected well, 75 ng of plasmid DNA and 0.5 µl of lipofectamine (Gibco) were incubated together for 30 minutes at room temperature in 12.5 µl of OptiMem (Gibco) prior to addition of DNA/lipofectamine mixture to cells. Each well was rinsed with 150 µl of unsupplemented DMEM. […] HBV DNA levels were quantitated from media harvested from cells on day 7 using the methods described in Jansen RW, Johnson LC, Averett, DR. […] Cytotoxicity due to drug treatment was determined using the DNA stain Bisbenzimide (H33342 3HCl 4H2O; Calbiochem Company, La Jolla CA). […] Fluorescent values per well were determined with a Millipore Cytofluor 2350 fluorescent plate reader (excitation, 355 nm; emission, 460 nm; arbitrary units). […]

[5] = test system: WT HBV; assay: PMEA inhibition of HBV DNA production, HepG2 cells transiently transfected with HBV genome plasmid; assay type: cell-based; conditions: Hepatitis B virus, 168 h, WT construct, day 7, read-out: IC50 PMEA (95%Cl)
Method: as §1

[6] = test system: HBV M552V; assay: as above; assay type: cell-based, hepatitis B virus
Method: (§2) The human hepatobtastoma cell line (Hep-G2-2.2.15) which constitutively produces infectious HBV was seeded into 96 well microtiter plates at a density of 5 x 10^3 cells per well. These cells were treated with a combination of lamivudine and PMEA on triplicate plates. Culture media containing drugs was replenished every other day for 9 days, at which time supernatants were collected and analyzed for HBV content. The lamivudine/PMEA combination was tested twice in triplicate in matrix fashion. Experiment 1 utilised a lamivudine range of 100 nM to 0.14 nM (3-fold dilutions in columns), and PMEA, 9-[(R)-2-(phosphonomethoxy)ethyl]adenine (adefovir), at concentrations of 1 µM to 10 nM (3.16 fold dilutions in rows). Experiment 2 was performed with dilutions of Lamivudine ranging from 100nM to .045 nM (in 3-fold dilutions in columns), and a PMEA range of 5 µM to 0.16 nM (3.16 fold dilutions in rows). Both drugs were diluted in a separate 96 well microtiter plate, and subsequently transferred onto plates containing the cell monolayers. Cells are grown in 150 µl RPMI 1640 supplemented with 2 mM L-Glutamine and 10% fetal bovine serum. Prior to transfer of drug, 120 µl of media was removed from the cells, leaving 30 µl on the monolayers to prevent drying. 90 µl of fresh media without drug was added, followed by the addition of 30 µl of 5X drug dilutions. Lamivudine and PMEA were each tested on their respective plates individually at the same concentrations. Data were normalised to values obtained with non-drug treated cells, and expressed as a percent of control for analysis. The method used for detection of HBV has been previously described (Jansen RW, Johnson LC, Averett, DR. High-Capacity in vitro assessment of anti-hepatitis B virus compound selectivity by a virion-specific polymerase chain reaction assay. Antimicrob Agents Chem 1993; 37 (3): 441-447.). Briefly, HBV detection was performed by "capturing" virus from supernatants on Anti-HBsAg coated plates, washing, denaturing to release HBV DNA, performing PCR with biotinylated primers, streptavidin capture of biotinylated PCR products with concomitant probe hybridization, addition of substrate, and reading optical densities of the colorimetric reaction. Dilutions of a standardized HBV-containing supernatant were included on every plate, and HBV DNA concentrations of test wells were calculated from this HBV standard curve. The useful range of detection is at least .045 to 45 fg of HBV DNA, where 30 copies of the genome can be reliably detected. Samples were tested in conjunction with both positive (.448 fg/ul plasmid DNA) and negative (RPMI medium supplemented with 2 mM L-Glutamine and 10% Fetal calf serum) controls. The average IC50 and standard error of the IC50s for the triplicate plates were calculated using SAS nonlinear regression to fit data to the Hill equation for each concentration response curve. When only a single determination of an IC50 for a particular dose combination could be made, the average of the standard errors from adjacent concentrations was used to estimate the standard error. Fractional inhibitory concentrations (FIC50) were calculated for each combination and plotted using the isobologram representation (Berenbaum, M.C. (1985) The Expected Effect ofa Combination of Agents: the General Solution. J. Theor. Biol. 114, 413-431). To assess statistical significance of synergy or antagonism, an unpaired t-test was used to compare each sum of paired FIC50 values with the theoretical value of 1. P values less than 0.05 were considered statistically significant. Comparison of P values between experiments must be interpreted with great care, as the experiments utilized different test concentration ranges (or ranges useable by the isobologram method). In some cases not all concentrations tested could support calculation of an IC50, since response was inhibited to a greater extent than 50 percent of control for all doses. […]

[7] = test system: HBV M552I; assay: as above; assay type: cell-based, hepatitis B virus
Method: as §2

[8] = test system: HBV L528M; assay: as above; assay type: cell-based, hepatitis B virus
Method: as §2

[9] = test system: HBV L528M/ M552V; assay: as above; assay type: cell-based, hepatitis B virus
Method: as §2

[10] = test system: Human hepatitis B DNA polymerase which expresses lamivudine codons; conditions: Xiong et al. 1997, Abstract No. 1211; cited from earlier work

Row | Structure (SMILES) | patients maintaining undetectable levels of virus [1] [%] | IC50 [2] [µM] | IC50 [3] [µM] | IC50 [4] [µM] | IC50 [5] [µM] | IC50 ([6]; Hepatitis B virus, 168 h, M552V construct, transfected HepG2 cells, day 7, read-out: IC50 PMEA (95%Cl)) [µM] | x-fold change in IC50 ([6]; M552V versus WT HBV) | IC50 ([7]; Hepatitis B virus, 168 h, M552I construct, transfected HepG2 cells, day 7, read-out: IC50 PMEA (95%Cl)) [µM] | x-fold change in IC50 ([7]; M552I versus WT HBV) | IC50 ([8]; Hepatitis B virus, 168 h, L528M construct, transfected HepG2 cells, day 7, read-out: IC50 PMEA (95%Cl)) [µM] | x-fold change in IC50 ([8]; L528M versus WT HBV) | IC50 ([9]; Hepatitis B virus, 168 h, L528M/ M552V construct, transfected HepG2 cells, day 7, read-out: IC50 PMEA (95%Cl)) [µM] | x-fold change in IC50 ([9]; L528M/ M552V versus WT HBV) | cross-resistance to PMEA [10]
1 | Nc1ccn([C@@H]2CS[C@H](CO)O2)c(=O)n1 (relative stereo) [lamivudine, (2R,cis)-4-amino-1-(2-hydroxymethyl-1,3-oxathiolan-5-yl)-pyrimidin-2-one] | 52 |  |  |  |  |  |  |  |  |  |  |  |  | 
2 | Nc1ncnc2c1ncn2CCOCP(=O)(O)O [PMEA, 9-[(R)-2-(phosphonomethoxy)ethyl]adenine] |  | 0.7 | 0.43 | 25 to 40 | 0.53 | 9.8 | 18 | 7.5 | 14 | 0.87 | 1.6 | 1.3 | 2.5 | lack of cross-resistance

Source: patent EP1113802B1, “ANTIVIRAL COMBINATIONS OF […] ADEFOVIR” (priority 1998, dated 2000)
